Results taken from PubChem BioAssay (NCI).
Where “and” joins values, the source holds several entries; their conditions need not be identical. Equal entries are not always repeated.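 Compound exposure: 48 hours, 5 concentrations, 96-well plates. GI50 = concentration required for 50% inhibition of growth. TGI is the concentration that stops growth completely.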

Key:
Test in all cases: NCI anticancer screen, dose series, 48 h
A498 renal = test system: A498 renal
MOLT-4 leukemia = test system: MOLT-4 leukemia
HCC-2998 colon = test system: HCC-2998 colon
SW-620 colon = test system: SW-620 colon
HOP-92 NSCLC = test system: HOP-92 NSCLC
SK-MEL-2 melanoma = test system: SK-MEL-2 melanoma
TK-10 renal = test system: TK-10 renal
NCI-H23 lung = test system: NCI-H23 lung

CN(C)c1ccc(/C=C/c2cc[n+](C)c(/C=C/c3ccc(N(C)C)cc3)c2)cc1
GI50 (A498 renal): 0.194 µM
TGI (A498 renal): 1.81 µM
GI50 (MOLT-4 leukemia): 0.388 µM
TGI (MOLT-4 leukemia): 3.53 µM
GI50 (HCC-2998 colon): 0.381 µM
TGI (HCC-2998 colon): 1.97 µM
GI50 (SW-620 colon): 0.336 µM
TGI (SW-620 colon): 5.6 µM
GI50 (HOP-92 NSCLC): 0.174 µM
TGI (HOP-92 NSCLC): 0.655 µM
GI50 (SK-MEL-2 melanoma): 0.256 µM
TGI (SK-MEL-2 melanoma): 0.713 µM
GI50 (TK-10 renal): 0.374 µM
TGI (TK-10 renal): 2.86 µM
GI50 (NCI-H23 lung): 0.194 µM
TGI (NCI-H23 lung): 1.21 µM

COC(=O)[C@@H](C)C[C@H](Cc1ccccc1)NC(=O)c1csc([C@@H](C[C@H](C(C)C)N(C)C(=O)[C@@H](NC(=O)[C@H]2CCCCN2C)C2CC2)OC(C)=O)n1
GI50 (A498 renal): 0.000862 µM
GI50 (MOLT-4 leukemia): 0.00464 µM and 0.00165 µM
TGI (MOLT-4 leukemia): > 16.5 µM
GI50 (HCC-2998 colon): 0.000338 µM and 0.00165 µM
TGI (HCC-2998 colon): > 16.5 µM
GI50 (SW-620 colon): 0.000292 µM and 0.00165 µM
TGI (SW-620 colon): > 16.5 µM
TGI (HOP-92 NSCLC): > 16.5 µM
GI50 (SK-MEL-2 melanoma): 0.000344 µM
GI50 (NCI-H23 lung): 0.000532 µM and 0.00165 µM
TGI (NCI-H23 lung): > 16.5 µM

O=C1C[C@@H]2/C(=C(O)\C=C\c3ccccc3)C(=O)C=C[C@@H]2O1
GI50 (A498 renal): 10.9 µM
TGI (A498 renal): 23.1 µM
GI50 (MOLT-4 leukemia): 1.85 µM
TGI (MOLT-4 leukemia): 5.77 µM
GI50 (SW-620 colon): 0.485 µM
TGI (SW-620 colon): 4.94 µM
GI50 (HOP-92 NSCLC): 1.59 µM
TGI (HOP-92 NSCLC): 3.21 µM
GI50 (SK-MEL-2 melanoma): 1.77 µM
TGI (SK-MEL-2 melanoma): 3.56 µM
GI50 (TK-10 renal): 2.63 µM
TGI (TK-10 renal): 7.59 µM
GI50 (NCI-H23 lung): 1.78 µM
TGI (NCI-H23 lung): 3.95 µM

COc1cc(-c2nc(SCCC(C)C)nc(Nc3ccc(S(N)(=O)=O)cc3)c2C#N)cc(OC)c1OC
GI50 (A498 renal): 1.89 µM
TGI (A498 renal): 5.36 µM
GI50 (MOLT-4 leukemia): 2.39 µM
TGI (MOLT-4 leukemia): > 100 µM
GI50 (HCC-2998 colon): 3.22 µM
TGI (HCC-2998 colon): > 100 µM
GI50 (SW-620 colon): 3.08 µM
TGI (SW-620 colon): > 100 µM
GI50 (HOP-92 NSCLC): 1.48 µM
TGI (HOP-92 NSCLC): 4.47 µM
GI50 (SK-MEL-2 melanoma): 2.47 µM
TGI (SK-MEL-2 melanoma): 6.16 µM
GI50 (TK-10 renal): 3.5 µM
TGI (TK-10 renal): > 100 µM
GI50 (NCI-H23 lung): 2.92 µM
TGI (NCI-H23 lung): 12.5 µM

Cn1cc(-c2ccc(-c3ccc(C4=NC5(CC5)C(=O)N4C[C@@H]4CCN(C(=O)C5CC5)C4)cc3)cc2)cn1
GI50 (A498 renal): 2.16 µM
TGI (A498 renal): 23.7 µM
GI50 (MOLT-4 leukemia): 4.31 µM
TGI (MOLT-4 leukemia): 80.8 µM
GI50 (HCC-2998 colon): 15.2 µM
TGI (HCC-2998 colon): 29.9 µM
GI50 (SW-620 colon): 18.2 µM
TGI (SW-620 colon): > 100 µM
GI50 (HOP-92 NSCLC): 23.6 µM
TGI (HOP-92 NSCLC): > 100 µM
GI50 (SK-MEL-2 melanoma): 24.8 µM
TGI (SK-MEL-2 melanoma): > 100 µM
GI50 (TK-10 renal): 24 µM
TGI (TK-10 renal): 81.2 µM
GI50 (NCI-H23 lung): 12.7 µM
TGI (NCI-H23 lung): 41.8 µM

O=c1c(O)c(-c2cc(O)c(O)c(O)c2)oc2cc(O)cc(O)c12
TGI (A498 renal): > 100 µM
TGI (MOLT-4 leukemia): > 100 µM
TGI (SW-620 colon): 36 µM
TGI (HOP-92 NSCLC): > 100 µM
TGI (SK-MEL-2 melanoma): > 100 µM
TGI (TK-10 renal): > 100 µM
TGI (NCI-H23 lung): 35.4 µM

CC12CCC(Br)C(C)(C)C1CC=C1C(=O)OCC1O2 (stereo not given)
TGI (A498 renal): 24.7 µM
TGI (MOLT-4 leukemia): > 100 µM
TGI (HCC-2998 colon): 24.9 µM
TGI (SW-620 colon): 32.8 µM
TGI (HOP-92 NSCLC): 34.1 µM
TGI (SK-MEL-2 melanoma): 28.6 µM
TGI (TK-10 renal): 28.5 µM
TGI (NCI-H23 lung): 32 µM

COc1cc2c(cc1OC)C13CCN4CC5CCOC6CC(=O)N2C1C6C5CC43 (stereo not given)
TGI (A498 renal): > 100 µM
TGI (MOLT-4 leukemia): > 100 µM
TGI (HCC-2998 colon): > 100 µM
TGI (SW-620 colon): > 100 µM
TGI (HOP-92 NSCLC): > 100 µM
TGI (SK-MEL-2 melanoma): > 100 µM
TGI (TK-10 renal): > 100 µM
TGI (NCI-H23 lung): > 100 µM

CCNC(=O)O[C@H]1CN[C@H](C#Cc2cc3ncnc(Nc4ccc(OCc5cccc(F)c5)c(Cl)c4)c3s2)C1
GI50 (A498 renal): 1.7 µM
TGI (A498 renal): 11.7 µM
GI50 (MOLT-4 leukemia): 4.58 µM
TGI (MOLT-4 leukemia): > 25 µM
GI50 (HCC-2998 colon): 4.91 µM
TGI (HCC-2998 colon): 15.5 µM
GI50 (SW-620 colon): 12 µM
TGI (SW-620 colon): > 25 µM
GI50 (HOP-92 NSCLC): 0.83 µM
TGI (HOP-92 NSCLC): 11.4 µM
GI50 (SK-MEL-2 melanoma): 6.1 µM
TGI (SK-MEL-2 melanoma): 24.9 µM
GI50 (TK-10 renal): 0.198 µM
TGI (TK-10 renal): 11.4 µM
GI50 (NCI-H23 lung): 9.13 µM
TGI (NCI-H23 lung): > 25 µM

COc1cc(C2CC(c3ccc(Nc4ccnc5cc(Cl)ccc45)cc3)=NN2c2ccc(Cl)cc2)cc(OC)c1OC (stereo not given)
GI50 (A498 renal): 1.66 µM
TGI (A498 renal): 50.6 µM
GI50 (MOLT-4 leukemia): 3.86 µM
TGI (MOLT-4 leukemia): > 100 µM
GI50 (HCC-2998 colon): 2.09 µM
TGI (HCC-2998 colon): 8.03 µM
GI50 (SW-620 colon): 2.55 µM
TGI (SW-620 colon): > 100 µM
GI50 (HOP-92 NSCLC): 1.64 µM
TGI (HOP-92 NSCLC): > 100 µM
GI50 (SK-MEL-2 melanoma): 2.35 µM
TGI (SK-MEL-2 melanoma): 6.6 µM
GI50 (TK-10 renal): 5.05 µM
TGI (TK-10 renal): > 100 µM
GI50 (NCI-H23 lung): 8.82 µM
TGI (NCI-H23 lung): > 100 µM

Cc1ccc(O)c(NC(=O)c2ccc(CNc3ccnc(C(F)(F)F)c3)cc2)c1
GI50 (A498 renal): 14.3 µM
TGI (A498 renal): 37.6 µM
GI50 (MOLT-4 leukemia): 1.77 µM
TGI (MOLT-4 leukemia): 20.6 µM
GI50 (HCC-2998 colon): 7.45 µM
TGI (HCC-2998 colon): 23.2 µM
GI50 (SW-620 colon): 8.7 µM
TGI (SW-620 colon): 42.4 µM
GI50 (HOP-92 NSCLC): 5.11 µM
TGI (HOP-92 NSCLC): 29.8 µM
GI50 (TK-10 renal): 10.8 µM
TGI (TK-10 renal): 40.1 µM
GI50 (NCI-H23 lung): 10.6 µM
TGI (NCI-H23 lung): 53.3 µM

CN(Cc1cc(C(C)(C)C)cc(Br)c1O)Cc1cc(C(C)(C)C)cc(Br)c1O
TGI (A498 renal): 8.93 µM
TGI (MOLT-4 leukemia): 19.9 µM
TGI (SW-620 colon): 16.9 µM
TGI (HOP-92 NSCLC): 12.8 µM
TGI (SK-MEL-2 melanoma): 5.86 µM
TGI (TK-10 renal): 5.88 µM
TGI (NCI-H23 lung): 9.88 µM

CN(C)CCNC(=O)c1ccc(NC(=O)c2nc([N+](=O)[O-])cn2C)cc1
TGI (A498 renal): > 100 µM
TGI (MOLT-4 leukemia): > 100 µM
TGI (SW-620 colon): > 100 µM
TGI (HOP-92 NSCLC): > 100 µM
TGI (SK-MEL-2 melanoma): > 100 µM
TGI (TK-10 renal): > 100 µM
TGI (NCI-H23 lung): > 100 µM

O=C1c2ccccc2-c2c1c1ccccc1c(=O)n2CCCn1ccnc1
GI50 (A498 renal): 2.74 µM
TGI (A498 renal): 14.1 µM
GI50 (MOLT-4 leukemia): 0.274 µM
TGI (MOLT-4 leukemia): 0.763 µM
GI50 (SW-620 colon): 0.949 µM
TGI (SW-620 colon): 30.2 µM
GI50 (HOP-92 NSCLC): 1.83 µM
TGI (HOP-92 NSCLC): 6.45 µM
GI50 (SK-MEL-2 melanoma): 7.78 µM
TGI (SK-MEL-2 melanoma): > 100 µM
GI50 (TK-10 renal): 1.97 µM
TGI (TK-10 renal): 6.83 µM
GI50 (NCI-H23 lung): 1.84 µM
TGI (NCI-H23 lung): 6.05 µM

COc1cccc(/C=N/C(/N=C/c2cccc(OC)c2O)c2cccc(OC)c2O)c1O
TGI (HCC-2998 colon): 73.9 µM
TGI (SW-620 colon): > 100 µM
TGI (HOP-92 NSCLC): > 100 µM
TGI (SK-MEL-2 melanoma): 43.2 µM
TGI (TK-10 renal): 55.6 µM
TGI (NCI-H23 lung): > 100 µM

CCOC(=O)c1c2c(n3ccccc13)C(=O)c1ncccc1C2=O
GI50 (MOLT-4 leukemia): 2.43 µM
TGI (MOLT-4 leukemia): 76.8 µM
GI50 (HCC-2998 colon): 0.877 µM
TGI (HCC-2998 colon): 14.3 µM
GI50 (HOP-92 NSCLC): 0.279 µM
TGI (HOP-92 NSCLC): 28.9 µM
GI50 (SK-MEL-2 melanoma): 8.23 µM
TGI (SK-MEL-2 melanoma): 90.3 µM
GI50 (TK-10 renal): 0.354 µM
TGI (TK-10 renal): 20.2 µM
GI50 (NCI-H23 lung): 0.0617 µM
TGI (NCI-H23 lung): 5.75 µM

O=C(/C=C/c1ccc(C(F)(F)F)cc1)c1ccc(Nc2nc(NCCO)nc(Nc3ccc(Cl)cc3)n2)cc1
GI50 (A498 renal): 1.67 µM
TGI (A498 renal): 12.6 µM
GI50 (MOLT-4 leukemia): 3.56 µM
TGI (MOLT-4 leukemia): 12.6 µM
GI50 (HCC-2998 colon): 2.93 µM
TGI (HCC-2998 colon): 8.17 µM
GI50 (SW-620 colon): 2.17 µM
TGI (SW-620 colon): 5.04 µM
GI50 (HOP-92 NSCLC): 5.39 µM
TGI (HOP-92 NSCLC): 49.4 µM
GI50 (SK-MEL-2 melanoma): 11.7 µM
TGI (SK-MEL-2 melanoma): 24.5 µM
GI50 (NCI-H23 lung): 10.7 µM
TGI (NCI-H23 lung): 26.2 µM

CC(=O)OCC1OC(n2c(-c3ccc(C)cc3)cc(-c3ccccc3)c(C#N)c2=O)C(OC(C)=O)C(OC(C)=O)C1OC(C)=O (stereo not given)
TGI (MOLT-4 leukemia): > 100 µM
TGI (HCC-2998 colon): > 100 µM
TGI (SW-620 colon): > 100 µM
TGI (HOP-92 NSCLC): > 100 µM
TGI (SK-MEL-2 melanoma): > 100 µM
TGI (TK-10 renal): > 100 µM
TGI (NCI-H23 lung): > 100 µM

COC(=O)/C=C/c1cc2c(cc1-c1c(C(=O)O)cc(OC)c(OC)c1OC)OCO2
TGI (MOLT-4 leukemia): > 10 µM
TGI (HCC-2998 colon): > 10 µM
TGI (SW-620 colon): > 10 µM
TGI (HOP-92 NSCLC): > 10 µM
TGI (TK-10 renal): > 10 µM
TGI (NCI-H23 lung): > 10 µM
